Reference: the supplement of paper PMC10627819

Columns and labels:
S. pneumoniae D39V [1] = test: fitness (endpoint OD595 vs no drug) (fraction); higher = more growth
Outline: (§1)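 Bacterial fitness was scored as optical density at the stationary-phase transition relative to the robust mean of no-drug control wells. Scores are capped at 1. The growth data were OD595 readings every 30 min for 14 h at 37 °C, background-subtracted against the first reading, from 384-well plates inoculated at OD595 0.01 in TSB, LB Lennox or CY.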

S. aureus Newman [2] = test: as above
Outline: as §1

S. aureus DSM 20231 = test: Bliss interaction score (quartile over a dose matrix) (fitness difference); higher = more antagonism (negative = synergy)
Outline: (§2)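 Each OD595 reading at entry into stationary phase was scaled to the robust mean of the untreated wells on its plate, with a ceiling of 1. These ratios define fitness, and single-drug fitness was inferred from combinations. The Bliss score compares observed fitness with the product-based expectation and is reported as quartiles across all replicate types, technical, biological and donor/recipient.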

B. subtilis 168 = test: as above
Outline: as §2

S. pneumoniae D39V [3] = test: as above
Outline: as §2

S. aureus Newman [4] = test: as above
Outline: as §2
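Wherever Bliss interaction score (quartile over a dose matrix) is given: first quartile when negative (synergy) and third quartile when positive (antagonism).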
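Wherever fitness (endpoint OD595 vs no drug) is given: OD595 on entry to stationary phase over no-drug wells; at most 1.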

CC1(C)S[C@@H]2[C@H](NC(=O)[C@H](N)c3ccc(O)cc3)C(=O)N2[C@H]1C(=O)O [Amoxicillin] + C/C(=C\C(=O)OCCCCCCCCC(=O)O)C[C@@H]1OC[C@H](C[C@@H]2O[C@H]2[C@@H](C)[C@H](C)O)[C@@H](O)[C@H]1O [Pseudomonic acid]
fitness, S. pneumoniae D39V [1]
Conditions | first compound 0.0008 µg/mL | first compound 0.0015 µg/mL | first compound 0.003 µg/mL
partner 0.03 µg/mL | 0.888 | 0.974 | 0.932
partner 0.06 µg/mL | 0.838 | 0.822 | 0.882
partner 0.12 µg/mL | 0.586 | 0.68 | –

fitness, one replicate
Conditions | partner 0.03 µg/mL | partner 0.0313 µg/mL | partner 0.06 µg/mL | partner 0.0625 µg/mL | partner 0.12 µg/mL | partner 0.125 µg/mL
S. aureus Newman [2], first compound 0.0625 µg/mL | – | 0.0402 | – | 0.0188 | – | 0.0414
S. aureus Newman [2], first compound 0.125 µg/mL | – | 0.0188 | – | 0.0167 | – | 0.0327
S. aureus Newman [2], first compound 0.25 µg/mL | – | 0.0112 | – | 0.0059 | – | 0.0163
S. pneumoniae D39V [1], first compound 0.006 µg/mL | 0.577 | – | 0.64 | – | 0.283 | –

Conditions | Bliss interaction score
B. subtilis 168 | 0.0663
S. aureus DSM 20231 | 0.0169
S. aureus Newman [4] | -0.031
S. pneumoniae D39V [3] | 0.121

CC1(C)S[C@@H]2[C@H](NC(=O)[C@H](N)c3ccc(O)cc3)C(=O)N2[C@H]1C(=O)O [Amoxicillin] + CC1=C(C(=O)O)N2C(=O)[C@@H](NC(=O)[C@H](N)c3ccccc3)[C@H]2SC1 [Cephalexin]
one replicate
Conditions | fitness
S. aureus Newman [2], first compound 0.0625 µg/mL, partner 2 µg/mL | 0.864
S. aureus Newman [2], first compound 0.125 µg/mL, partner 2 µg/mL | 0.832
S. aureus Newman [2], first compound 0.25 µg/mL, partner 2 µg/mL | 0.705
S. pneumoniae D39V [1], first compound 0.0008 µg/mL, partner 0.125 µg/mL | 0.978
S. pneumoniae D39V [1], first compound 0.0008 µg/mL, partner 0.25 µg/mL | 0.9
S. pneumoniae D39V [1], first compound 0.0008 µg/mL, partner 0.5 µg/mL | 0.881
S. pneumoniae D39V [1], first compound 0.0008 µg/mL, partner 1 µg/mL | 0.91
S. pneumoniae D39V [1], first compound 0.0008 µg/mL, partner 2 µg/mL | 0.494
S. pneumoniae D39V [1], first compound 0.0008 µg/mL, partner 4 µg/mL | 0.02
S. pneumoniae D39V [1], first compound 0.0015 µg/mL, partner 0.125 µg/mL | 0.922
S. pneumoniae D39V [1], first compound 0.0015 µg/mL, partner 0.25 µg/mL | 0.891
S. pneumoniae D39V [1], first compound 0.0015 µg/mL, partner 0.5 µg/mL | 0.906
S. pneumoniae D39V [1], first compound 0.003 µg/mL, partner 0.125 µg/mL | 0.857
S. pneumoniae D39V [1], first compound 0.003 µg/mL, partner 0.25 µg/mL | 0.835
S. pneumoniae D39V [1], first compound 0.003 µg/mL, partner 0.5 µg/mL | 0.849
S. pneumoniae D39V [1], first compound 0.006 µg/mL, partner 1 µg/mL | 0.0722
S. pneumoniae D39V [1], first compound 0.006 µg/mL, partner 2 µg/mL | 0.0153
S. pneumoniae D39V [1], first compound 0.006 µg/mL, partner 4 µg/mL | 0.0513

fitness
Conditions | partner 0.25 µg/mL | partner 0.5 µg/mL | partner 1 µg/mL | partner 2 µg/mL | partner 4 µg/mL
S. aureus Newman [2], first compound 0.0625 µg/mL | 0.877 | 0.882 | 0.942 | – | –
S. aureus Newman [2], first compound 0.125 µg/mL | 0.928 | 0.921 | 0.894 | – | –
S. aureus Newman [2], first compound 0.25 µg/mL | 0.877 | 0.928 | 0.888 | – | –
S. pneumoniae D39V [1], first compound 0.0015 µg/mL | – | – | 0.791 | 0.337 | 0.0775
S. pneumoniae D39V [1], first compound 0.003 µg/mL | – | – | 0.544 | 0.125 | 0.0383

Conditions | Bliss interaction score
B. subtilis 168 | 0.0616
S. aureus DSM 20231 | 0.0743
S. aureus Newman [4] | 0.0592
S. pneumoniae D39V [3] | -0.0619
